Measurements from PubChem BioAssay (NCI).
Several values for one entry are separate records, joined by “and”; a condition that tells them apart may be missing. Equal values may be shown once.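 Tested at 5 concentrations; 48 h exposure; 96-well plates; endpoints linearly interpolated, else capped at highest concentration. Abbreviation: GI50, concentration required for 50% inhibition of growth. TGI: concentration producing complete growth inhibition.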

Columns and labels:
Assay in all cases: NCI anticancer screen, dose series, 48 h
COLO 205 colon = test system: COLO 205 colon
K-562 leukemia = test system: K-562 leukemia
ACHN renal = test system: ACHN renal
CCRF-CEM leukemia = test system: CCRF-CEM leukemia
UACC-257 melanoma = test system: UACC-257 melanoma
M14 melanoma = test system: M14 melanoma
LXFL 529 NSCLC = test system: LXFL 529 NSCLC
SNB-19 CNS = test system: SNB-19 CNS
EKVX NSCLC = test system: EKVX NSCLC
RPMI-8226 leukemia = test system: RPMI-8226 leukemia
UO-31 renal = test system: UO-31 renal
SN12C renal = test system: SN12C renal
SF-295 CNS = test system: SF-295 CNS
SK-MEL-28 melanoma = test system: SK-MEL-28 melanoma
SF-539 CNS = test system: SF-539 CNS
MCF7 breast = test system: MCF7 breast
M19-MEL melanoma = test system: M19-MEL melanoma
NCI-H23 lung = test system: NCI-H23 lung
HS 578T breast = test system: HS 578T breast
SK-MEL-2 melanoma = test system: SK-MEL-2 melanoma
RXF 393 renal = test system: RXF 393 renal
SNB-78 CNS = test system: SNB-78 CNS
HL-60(TB) leukemia = test system: HL-60(TB) leukemia
TK-10 renal = test system: TK-10 renal
OVCAR-5 ovarian = test system: OVCAR-5 ovarian
DMS 114 small cell lung = test system: DMS 114 small cell lung
A549 NSCLC = test system: A549 NSCLC
RXF-631 renal = test system: RXF-631 renal
HCC-2998 colon = test system: HCC-2998 colon
NCI-H226 lung = test system: NCI-H226 lung
SF-268 CNS = test system: SF-268 CNS
MDA-MB-231 breast = test system: MDA-MB-231 breast
DLD-1 colon = test system: DLD-1 colon
HT29 colon = test system: HT29 colon
LOX IMVI melanoma = test system: LOX IMVI melanoma
SR leukemia = test system: SR leukemia
HCT-15 colon = test system: HCT-15 colon
NCI-H460 lung = test system: NCI-H460 lung
OVCAR-8 ovarian = test system: OVCAR-8 ovarian
SK-OV-3 ovarian = test system: SK-OV-3 ovarian
MOLT-4 leukemia = test system: MOLT-4 leukemia
NCI/ADR-RES ovarian = test system: NCI/ADR-RES ovarian
786-0 renal = test system: 786-0 renal
OVCAR-3 ovarian = test system: OVCAR-3 ovarian
KM12 colon = test system: KM12 colon
SK-MEL-5 melanoma = test system: SK-MEL-5 melanoma
CAKI-1 renal = test system: CAKI-1 renal
KM20L2 colon = test system: KM20L2 colon
U251 CNS = test system: U251 CNS
OVCAR-4 ovarian = test system: OVCAR-4 ovarian
DMS 273 small cell lung = test system: DMS 273 small cell lung
HOP-92 NSCLC = test system: HOP-92 NSCLC
UACC-62 melanoma = test system: UACC-62 melanoma
PC-3 prostate = test system: PC-3 prostate
SNB-75 CNS = test system: SNB-75 CNS
HOP-62 NSCLC = test system: HOP-62 NSCLC
NCI-H522 lung = test system: NCI-H522 lung
MALME-3M melanoma = test system: MALME-3M melanoma
SW-620 colon = test system: SW-620 colon
A498 renal = test system: A498 renal
HCT-116 colon = test system: HCT-116 colon

## CCCCCCCCCCC(O)[C@H]1CCC(C2CC[C@H]([C@H](O)CCCCCCCCCCC(O)CC3=CC(C)OC3=O)O2)O1 (some centres undefined)
COLO 205 colon
  GI50: 2.17 µM
  TGI: 2.84 µM and 5.12 µM
K-562 leukemia
  GI50: < 0.01 µM
  TGI: 4.55 µM
ACHN renal
  TGI: 2.9 µM
CCRF-CEM leukemia
  TGI: 5.37 µM
UACC-257 melanoma
  TGI: 4.83 µM and 5.13 µM
M14 melanoma
  GI50: 7 µM
LXFL 529 NSCLC
  TGI: 9.79 µM
SNB-19 CNS
  GI50: 2.05 µM
  TGI: 6.96 µM and 32.1 µM
EKVX NSCLC
  GI50: 2.09 µM
RPMI-8226 leukemia
  GI50: 0.615 µM
  TGI: 3.2 µM
UO-31 renal
  TGI: 2.36 µM and 2.67 µM
SN12C renal
  GI50: 1.76 µM
SF-295 CNS
  GI50: 0.29 µM
  TGI: 14.1 µM
SK-MEL-28 melanoma
  TGI: 7.73 µM
SF-539 CNS
  TGI: 2.9 µM and 5.61 µM
MCF7 breast
  TGI: 4.44 µM
M19-MEL melanoma
  TGI: 8.92 µM
NCI-H23 lung
  GI50: < 0.01 µM
  TGI: 4.03 µM and 7.12 µM
HS 578T breast
  TGI: 3.5 µM
SK-MEL-2 melanoma
  GI50: 1.76 µM
  TGI: 3.43 µM and 4.72 µM
RXF 393 renal
  TGI: 5 µM
SNB-78 CNS
  TGI: 8.16 µM
HL-60(TB) leukemia
  TGI: 6.37 µM
TK-10 renal
  GI50: 4.05 µM
OVCAR-5 ovarian
  GI50: 2.58 µM
  TGI: 9.11 µM
DMS 114 small cell lung
  TGI: 3.01 µM
A549 NSCLC
  GI50: 2.96 µM
  TGI: > 100 µM
RXF-631 renal
  TGI: 8.13 µM
HCC-2998 colon
  TGI: 15 µM
NCI-H226 lung
  TGI: 2.57 µM and 3.36 µM
SF-268 CNS
  GI50: 1.11 µM
  TGI: 3.67 µM and 8.61 µM
MDA-MB-231 breast
  TGI: 4.23 µM
DLD-1 colon
  TGI: > 100 µM
HT29 colon
  TGI: 2.88 µM and 14.4 µM
LOX IMVI melanoma
  GI50: 1.18 µM
  TGI: 3.09 µM and 2.92 µM
SR leukemia
  TGI: 9.23 µM
HCT-15 colon
  GI50: 1.23 µM
  TGI: 3.7 µM and 5.88 µM
NCI-H460 lung
  GI50: 2.16 µM
  TGI: 4.12 µM and 29.9 µM
OVCAR-8 ovarian
  GI50: 2.29 µM
  TGI: 2.8 µM and 18.4 µM
SK-OV-3 ovarian
  TGI: 15.7 µM
MOLT-4 leukemia
  TGI: 3.69 µM
NCI/ADR-RES ovarian
  TGI: 2.11 µM
786-0 renal
  GI50: 2.68 µM
  TGI: 7.1 µM
OVCAR-3 ovarian
  GI50: 0.674 µM
  TGI: 4.01 µM and 3.32 µM
KM12 colon
  TGI: 3.66 µM
SK-MEL-5 melanoma
  GI50: < 0.01 µM
  TGI: 2.47 µM and 1.74 µM
CAKI-1 renal
  GI50: 4.09 µM
KM20L2 colon
  TGI: 19.4 µM
U251 CNS
  GI50: 3.58 µM
  TGI: > 100 µM
OVCAR-4 ovarian
  TGI: 11.7 µM
DMS 273 small cell lung
  TGI: 4.4 µM
HOP-92 NSCLC
  TGI: 5.87 µM and 6.72 µM
UACC-62 melanoma
  GI50: 1.97 µM
  TGI: 4.03 µM and 14.2 µM
PC-3 prostate
  TGI: 3.73 µM
SNB-75 CNS
  GI50: 2.25 µM
  TGI: 5.08 µM and 5.94 µM
HOP-62 NSCLC
  TGI: 4.89 µM and 5.88 µM
NCI-H522 lung
  TGI: 5.06 µM
MALME-3M melanoma
  TGI: 4.32 µM
SW-620 colon
  GI50: 2.51 µM
  TGI: 6.83 µM and 12 µM
A498 renal
  GI50: 3.15 µM
  TGI: 9.03 µM and 53.2 µM
HCT-116 colon
  GI50: 2.24 µM
  TGI: 8.87 µM and 10 µM
